Peptide text beside a SMILES is read from it.
Tested on: human vascular endothelial cells and fibroblast cells (co-culture, Angiogenesis Kit KZ-1000)
Details: polypeptide 10 μg/mL, day 11 of culture
Procedure: Using AG30-5C as a positive control, the angiogenesis-inducing activity of SR-1 and SR-2 was measured. […] As a negative control, polypeptide-free group (Control) was used.
Cells were cultured at 37° C. under 5% CO2 in a 24-well plate using the special media to which the polypeptide was added. The medium was replaced with a medium containing the same polypeptide on day 4, day 7 and day 9 of culture. On day 11 from the beginning of the culture, the medium was removed and staining was performed using a kit for staining lumina (for CD31 antibody staining) according to the following procedure.
The primary antibody (mouse anti-human CD31 antibody) was 4000-fold diluted with a blocking solution (Dulbecco's phosphate buffered saline (PBS(−)) containing 1% BSA). To each well, 0.5 mL of this primary antibody solution was added, and the plate was incubated for 60 minutes at 37° C. After the completion of the incubation, each well was washed totally 3 times with 1 mL of the blocking solution.
Then, 0.5 mL of a secondary antibody solution (goat anti-mouse IgG/alkaline phosphatase conjugate) 500-fold diluted with the blocking solution was added to each well. The plate was incubated for 60 minutes at 37° C., and thereafter each well was washed 3 times with 1 mL of distilled water. During that period, 2 tablets of BCIP/NBT were dissolved into distilled water, and the obtained solution was filtered through a filter having a pore size of 0.2 μm to prepare a substrate solution. To each well, 0.5 mL of the prepared BCIP/NBT substrate solution was added, and the plate was incubated at 37° C. until the lumina turned to deep purple (typically for 5-10 minutes). After the completion of the incubation, each well was washed 3 times with 1 mL of distilled water. After washing, the washing solution was removed by aspiration, and the plate was left to stand and dry naturally. After drying, photographs of each well were taken under a microscope.
Each of the obtained images was quantified using an angiogenesis quantification software. Computer analysis was carried out on various parameters.

Structure (SMILES): CC[C@H](C)[C@H](NC(=O)[C@H](CC(C)C)NC(=O)[C@H](CCCCN)NC(=O)[C@H](CC(C)C)NC(=O)[C@@H](N)CCSC)C(=O)N[C@@H](Cc1ccccc1)C(=O)N[C@@H](CC(C)C)C(=O)N[C@@H](Cc1c[nH]cn1)C(=O)N[C@@H](CCCNC(=N)N)C(=O)N[C@@H](CC(C)C)C(=O)N[C@@H](CCCCN)C(=O)N[C@@H](CCCNC(=N)N)C(=O)N[C@@H](CCSC)C(=O)N[C@@H](CCCNC(=N)N)C(=O)N[C@@H](CCCCN)C(=O)N[C@@H](CCCNC(=N)N)C(=O)N[C@@H](CC(C)C)C(=O)N[C@@H](CCCCN)C(=O)N[C@@H](CCCNC(=N)N)C(=O)N[C@@H](CCCCN)C(=O)N[C@@H](CC(C)C)C(=O)N[C@@H](CCCNC(=N)N)C(=O)N[C@@H](Cc1ccccc1)C(=O)N[C@@H](Cc1c[nH]c2ccccc12)C(=O)N[C@@H](Cc1c[nH]cn1)C(=O)N[C@@H](CCCNC(=N)N)C(=O)N[C@@H](CCCCN)C(=O)N[C@@H](CCCNC(=N)N)C(=O)N[C@@H](Cc1ccc(O)cc1)C(=O)N[C@@H](CCCCN)C(=O)O [AG30-5C, reference compound] (H-MLKLIFLHRLKRMRKRLKRKLRFWHRKRYK-OH; N-terminus and C-terminus assumed)
- The Length of Lumina (Percentage when taking Control as 100): 119.1%

From patent publication US9376470B2, “Polypeptide having angiogenesis-inducing activity and antibacterial activity, and use thereof for medical purposes” (FunPep Inc., priority 2008, dated 2016)
